Measured values from the supplement of paper PMC10307832.

How the values were obtained:
Assay in all cases: relative viability (nuclei count vs DMSO), 5 days (fraction); higher = more cells survive
[1] = compound: C1CCC(CC1)N(CCNCCC2=C3C(=C(C=C2)O)NC(=O)CO3)C(=O)CCNCCC4=CC(=C(C=C4)Cl)Cl [AZ505] + NC(=O)Nc1cc(-c2cccc(F)c2)sc1C(=O)N[C@H]1CCCNC1 [AZD7762] (partner 0.2 µM)
In short: (§1)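 Each reported value is a median over duplicate plates. It expresses relative viability: treated-well nuclei count divided by vehicle-well nuclei count. Lung cancer cell lines in 1536-well plates were dosed by pin tool a day after seeding, alone with one drug or with a fixed anchor-drug dose plus five library-drug doses (not always all listed) in √10 steps, and nuclei were counted after 5 days.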

[2] = compound: C1CCC(CC1)N(CCNCCC2=C3C(=C(C=C2)O)NC(=O)CO3)C(=O)CCNCCC4=CC(=C(C=C4)Cl)Cl [AZ505] + O=C(c1cc(Cc2n[nH]c(=O)c3ccccc23)ccc1F)N1CCN(C(=O)C2CC2)CC1 [Olaparib] (partner 8 µM)
In short: as §1

[3] = compound: Cn1c(=O)n(-c2ccc(C(C)(C)C#N)cc2)c2c3cc(-c4cnc5ccccc5c4)ccc3ncc21 [Dactolisib] + COc1cc2c(Oc3ccc(NC(=O)C4(C(=O)Nc5ccc(F)cc5)CC4)cc3F)ccnc2cc1OCCCN1CCOCC1 [Foretinib] (partner 0.25 µM)
In short: as §1

[4] = compound: Cn1c(=O)n(-c2ccc(C(C)(C)C#N)cc2)c2c3cc(-c4cnc5ccccc5c4)ccc3ncc21 [Dactolisib] + C[C@@H](Oc1cc(-c2cnn(C3CCNCC3)c2)cnc1N)c1c(Cl)ccc(F)c1Cl [Crizotinib] (partner 1 µM)
In short: as §1

Row | Cell Line | relative viability ([1]; first compound 0.08 µM) | relative viability ([1]; first compound 0.253 µM) | relative viability ([1]; first compound 0.8 µM) | relative viability ([1]; first compound 2.53 µM) | relative viability ([1]; first compound 8 µM) | relative viability ([2]; first compound 0.08 µM) | relative viability ([2]; first compound 0.253 µM) | relative viability ([2]; first compound 0.8 µM) | relative viability ([2]; first compound 2.53 µM) | relative viability ([2]; first compound 8 µM) | relative viability ([3]; first compound 0.002 µM) | relative viability ([3]; first compound 0.006325 µM) | relative viability ([3]; first compound 0.02 µM) | relative viability ([3]; first compound 0.06325 µM) | relative viability ([3]; first compound 0.2 µM) | relative viability ([4]; first compound 0.002 µM) | relative viability ([4]; first compound 0.006325 µM) | relative viability ([4]; first compound 0.02 µM) | relative viability ([4]; first compound 0.06325 µM) | relative viability ([4]; first compound 0.2 µM)
1 | HCC-827 | 0.25 | 0.163 | 0.49 | 0.204 | 0.263 | 0.629 | 0.662 | 0.628 | 0.646 | 0.711 | 0.995 | 1.04 | 0.913 | 0.815 | 0.283 | 0.978 | 0.897 | 0.992 | 0.809 | 0.506
2 | HOP-62 | 0.43 | 0.328 | 0.682 | 0.63 | 0.669 | – | 0.374 | 0.386 | 0.387 | 0.45 | 1.26 | 1.1 | 0.974 | 0.747 | 0.516 | 1.06 | 1.01 | 0.923 | 0.505 | 0.472
3 | LC-2-ad | 0.801 | 0.821 | 0.867 | 0.847 | 0.832 | 0.683 | 0.696 | 0.648 | 0.713 | 0.741 | 1.08 | 0.917 | 0.839 | 0.545 | 0.551 | 0.403 | 0.477 | 0.505 | 0.338 | 0.4
4 | LCLC-97TM1 | 0.427 | 0.111 | 0.301 | 0.317 | 0.354 | 0.326 | 0.471 | 0.369 | – | 0.595 | 1.05 | 0.923 | 0.688 | 0.668 | 0.367 | 0.509 | 0.373 | 0.277 | 0.149 | 0.145
5 | LCLC-103H | 0.711 | 0.719 | 0.665 | 0.647 | 0.718 | 0.677 | 0.729 | 0.729 | 0.734 | 0.717 | 1.05 | 0.763 | 0.654 | 0.517 | 0.303 | 1.03 | 0.985 | 1.08 | 0.675 | 0.461
6 | LK-2 | 0.512 | 0.264 | 0.597 | 0.342 | 0.403 | 0.597 | 0.583 | 0.87 | 0.822 | 0.784 | 1.19 | 0.997 | 0.766 | 0.444 | 0.196 | 0.209 | 0.244 | 0.266 | 0.213 | 0.216
7 | LOU-NH91 | 0.734 | 0.737 | 0.744 | 0.775 | 0.781 | 0.87 | 0.897 | 0.886 | 0.903 | 0.894 | 0.897 | 0.921 | 0.9 | 0.658 | 0.548 | 0.718 | 0.715 | 0.698 | 0.593 | 0.515
8 | LU99A | 0.341 | 0.54 | 0.358 | – | 0.361 | 0.279 | 0.298 | 0.289 | – | 0.265 | 0.742 | 0.75 | 0.582 | 0.386 | 0.312 | 0.548 | 0.446 | 0.335 | 0.272 | 0.231
9 | LXF-289 | 1.07 | 1.04 | 1.14 | 1.03 | 1.16 | 0.988 | 1.11 | 1.01 | 1.05 | 1.01 | 1.02 | 0.952 | 0.99 | 0.987 | 0.827 | 0.822 | 0.779 | 0.896 | 0.942 | 0.708
10 | NCI-H23 | 0.228 | 0.146 | 0.255 | 0.268 | 0.157 | 0.256 | 0.362 | 0.305 | 0.364 | 0.337 | 1.17 | 0.997 | 0.69 | 0.456 | 0.413 | 0.455 | 0.408 | 0.614 | 0.357 | 0.257
11 | NCI-H322M | 0.629 | – | 0.582 | 0.616 | 0.545 | 0.576 | – | 0.707 | 0.768 | 0.844 | 1.08 | 0.89 | 0.73 | 0.629 | 0.578 | 0.827 | 1.02 | 0.863 | 0.684 | 0.641
12 | NCI-H358 | 0.466 | 0.52 | 0.422 | – | 0.526 | 0.569 | 0.761 | 0.584 | 0.604 | 0.59 | 0.738 | 0.769 | 0.623 | 0.312 | 0.165 | 0.702 | 0.705 | 0.738 | 0.391 | 0.189
13 | NCI-H441 | 0.876 | 1.14 | 1.06 | 1.36 | 1.54 | 0.527 | 0.503 | 0.586 | 0.57 | 0.621 | 1.14 | 1.04 | 0.961 | 0.432 | 0.382 | 0.923 | 0.64 | 0.554 | 0.496 | 0.271
14 | NCI-H460 | 0.701 | 0.522 | 0.623 | 0.483 | 0.621 | 0.365 | 0.477 | 0.388 | 0.46 | 0.477 | 1.03 | 1 | 1.03 | 0.493 | 0.407 | 1.09 | 0.835 | 0.513 | 0.136 | 0.0929
15 | NCI-H596 | 1.18 | – | 1.02 | 1.04 | 0.916 | 0.743 | – | 0.704 | 0.722 | 0.598 | 0.83 | 0.809 | 0.473 | 0.316 | 0.242 | 0.974 | 0.874 | 0.742 | 0.595 | 0.395
16 | NCI-H647 | 0.344 | 0.226 | 0.539 | 0.576 | 0.722 | 0.521 | 0.739 | 0.547 | 0.533 | 0.706 | 1.15 | 1.18 | 1.16 | 0.211 | 0.395 | 1.21 | 0.848 | 0.5 | 0.133 | 0.124
